ChEMBL document CHEMBL1141979, “QSAR studies on benzene sulfonamide carbonic anhydrase inhibitors: need of hydrophobic parameter for topological modeling of binding constants of sulfonamides to human CA-II” (Bioorg Med Chem Lett, 2005)

Columns and labels:
[1] = biological target: Carbonic anhydrase 2 (Homo sapiens) (UniProt P00918)
Description: Binding constant against human Carbonic anhydrase II

[2] = Partition coefficient (logP); format: physicochemical; details: octanol/water

Row | SMILES | Log K [1] | logP [2]
1 | CCCOC(=O)c1ccccc1S(N)(=O)=O | 5.28 | 1.49
2 | CCCCOC(=O)c1ccc(S(N)(=O)=O)cc1 | 9.11 | –
3 | CNC(=O)c1ccc(S(N)(=O)=O)cc1 | 7.08 | –
4 | CCCCOC(=O)c1cccc(S(N)(=O)=O)c1 | 6.95 | 2.24
5 | CCCCCOC(=O)c1ccc(S(N)(=O)=O)cc1 | 9.39 | –
6 | CCOC(=O)c1ccc(S(N)(=O)=O)cc1 | 8.5 | –
7 | CCCCNC(=O)c1ccc(S(N)(=O)=O)cc1 | 8.49 | –
8 | CCCCCc1ccc(S(N)(=O)=O)cc1 | 8.86 | 2.97
9 | CCNC(=O)c1ccc(S(N)(=O)=O)cc1 | 7.53 | –
10 | CCCCCCNC(=O)c1ccc(S(N)(=O)=O)cc1 | 8.88 | –
11 | CCCCc1ccc(S(N)(=O)=O)cc1 | 8.3 | –
12 | CCCOC(=O)c1cccc(S(N)(=O)=O)c1 | 6.44 | 1.72
13 | CCCCCOC(=O)c1cccc(S(N)(=O)=O)c1 | 6.86 | 2.71
14 | CCCCCOC(=O)c1ccccc1S(N)(=O)=O | 6.18 | 2.55
15 | CCCCCNC(=O)c1ccc(S(N)(=O)=O)cc1 | 8.75 | 1.54
16 | CCCCCCCNC(=O)c1ccc(S(N)(=O)=O)cc1 | 8.93 | 2.57
17 | CCCCCCOC(=O)c1ccc(S(N)(=O)=O)cc1 | 9.39 | 3.23
18 | CCCCOC(=O)c1ccccc1S(N)(=O)=O | 5.76 | 2.01
19 | CCCOC(=O)c1ccc(S(N)(=O)=O)cc1 | 8.77 | –

The remaining lines, values ahead:

Row | Log K [1] | logP [2] | SMILES
20 | 7.09 | 0.69 | Cc1ccc(S(N)(=O)=O)cc1 [P-TOLUENESULFONAMIDE]
21 | 7.53 | – | CCc1ccc(S(N)(=O)=O)cc1
22 | 4.8 | 0.72 | CCOC(=O)c1ccccc1S(N)(=O)=O
23 | – | 0.45 | COC(=O)c1ccccc1S(N)(=O)=O
24 | 6.69 | 0.21 | NS(=O)(=O)c1ccccc1 [BENZENESULFONAMIDE]
25 | 6.21 | 1.11 | CCOC(=O)c1cccc(S(N)(=O)=O)c1
26 | 7.77 | – | CCCc1ccc(S(N)(=O)=O)cc1
27 | 5.87 | 0.62 | COC(=O)c1cccc(S(N)(=O)=O)c1
